Measurements published in patent US20160081968A1, “COMPOSITION FOR USE IN REDUCING SCAB FORMATION AND PROMOTING HEALING” (BIOGLAN AB, priority 2013, published 2016).

Test system: bacteria (e.g. S. aureus, B. subtilis, Pseud. aeuruginosa)
Experiment: Antimicrobial activity of glyceryl monolaurate
Format: cell-based
Text: The compositions have an inbuilt antimicrobial system which gives less need for preservatives. The antimicrobial activity of the composition is partly due to the presence of hydrogen peroxide and partly due to the presence of glyceryl monolaurate. […] In combination with hydrogen peroxide, a synergistic effect is achieved and antimicrobial activity according to A criteria is obtained against also yeast (e.g. Candida albicans) and molds (Aspergillus niger). This was shown by performing a preservative effectiveness test according to the PhEur method. Acceptance criteria A is the most strict criteria according to PhEur. Criteria B is less strict.

## CCCCCCCCCCCC(=O)OCC(O)CO (stereo not shown) [Glyceryl monolaurate]
  antimicrobial activity against bacteria: antimicrobially active against bacteria
